Ends that are not written are not given here.
Test system: intracellular calcium ion concentration
Test: activity of increasing intracellular calcium ion concentration (method of Example 3 of WO 99/33976)
Assay type: cell-based
Conditions: compared with a standard product isolated from human placenta extract

## human KiSS-1 peptide: Recombinant peptide of SEQ ID NO: 1 with C-terminal amide, cleaved from KiSS-1 peptide-CS23 fusion protein expressed in E. coli (GTSLSPPPESSGSRQQPGLSAPHSRQIPAPQGAVLVQREKDLPNYNWNSFGLRF-NH2)
  activity of increasing intracellular calcium ion concentration: equivalent to that of a standard product isolated from human placenta extract
